Reference: PMC7915026, “Sulfaguanidine Hybrid with Some New Pyridine-2-One Derivatives: Design, Synthesis, and Antimicrobial Activity against Multidrug-Resistant Bacteria as Dual DNA Gyrase and DHFR Inhibitors” (Antibiotics, 2021)
Converted amounts (≈) assume the structure as drawn. Read-outs that look alike come from different tables or passages of the source.

Assays:
[1] = test system: P. aeruginosa ATCC 27853; test: Inhibition zone, paper disk/agar diffusion; assay type: cell-based; conditions: P. aeruginosa; Na = no activity
From the text: (§1) The antimicrobial activity performed at the bacteriology laboratory, Botany and Microbiology Department, Faculty of Science, Al-Azhar University, Cairo, Egypt. The inhibition zone (IZ) of the tested derivatives expressed as the diameter (mm) according to the agar plate diffusion method.

[2] = test system: S. typhi ATCC 6539; test: Inhibition zone, paper disk/agar diffusion; assay type: cell-based; conditions: S. typhi; Na = no activity
From the text: as §1

[3] = test system: F. oxysporum (RCMB 008002); test: Inhibition zone, paper disk/agar diffusion; assay type: cell-based; conditions: Na = no activity
From the text: as §1

[4] = test system: E. faecalis ATCC 29212; test: Inhibition zone, paper disk/agar diffusion; assay type: cell-based; conditions: E. faecalis; Na = no activity
From the text: as §1

[5] = test system: C. albicans (ATCC 10231); test: Inhibition zone, paper disk/agar diffusion; assay type: cell-based; conditions: Na = no activity
From the text: as §1

[6] = test system: B. subtilis ATCC 6633; test: Inhibition zone, paper disk/agar diffusion; assay type: cell-based; conditions: B. subtilis; Na = no activity
From the text: as §1

[7] = test system: S. aureus ATCC 29213; test: Inhibition zone, paper disk/agar diffusion; assay type: cell-based; conditions: S. aureus; Na = no activity
From the text: as §1

[8] = test system: E. coli ATCC 25922; test: Inhibition zone, paper disk/agar diffusion; assay type: cell-based; conditions: E. coli; Na = no activity
From the text: as §1

[9] = test system: S. aureus ATCC 33591; test: Inhibition zone against multidrug-resistant bacteria; assay type: cell-based; conditions: MDRB S. aureus ATCC 33591
From the text: (§2) Norfloxacin was used as a positive control for the multidrug resistance study.
as §1

[10] = test system: S. aureus ATCC 43300; test: as above; assay type: cell-based; conditions: MDRB S. aureus ATCC 43300
From the text: as §2, §1

[11] = test system: P. aeruginosa ATCC BAA-2111; test: as above; assay type: cell-based; conditions: MDRB P. aeruginosa ATCC BAA-2111
From the text: as §2, §1

[12] = test system: E. coli ATCC BAA-196; test: as above; assay type: cell-based; conditions: MDRB E. coli ATCC BAA-196
From the text: as §2, §1

[13] = test system: B. subtilis ATCC 6633; test: MIC and MBC determination; assay type: cell-based; conditions: Bacillus subtilis, ATCC6633, B. subtilis
[14] = test system: E. coli ATCC 25922; test: MIC and MBC determination; assay type: cell-based; conditions: Escherichia coli, ATCC25922, E. coli
[15] = test system: S. aureus ATCC 33591; test: MIC and MBC against multidrug-resistant strains; assay type: cell-based; conditions: Staphylococcus aureus, ATCC33591, S. aureus ATCC 33591
From the text: as §2
(§3) The experiment was repeating for three-times.

[16] = test system: S. aureus ATCC 43300; test: MIC and MBC against multidrug-resistant strains; assay type: cell-based; conditions: Staphylococcus aureus, ATCC43300, S. aureus ATCC 43300
From the text: as §2, §3

[17] = test system: P. aeruginosa ATCC BAA-2111; test: MIC and MBC against multidrug-resistant strains; assay type: cell-based; conditions: P. aeruginosa ATCC BAA-2111
From the text: as §2, §3

[18] = test system: E. coli ATCC BAA-196; test: MIC and MBC against multidrug-resistant strains; assay type: cell-based; conditions: E. coli ATCC BAA-196
From the text: as §2, §3

[19] = test system: E. faecalis ATCC 29212; test: MIC and MBC determination; assay type: cell-based; conditions: Enterococcus faecalis, ATCC29212, E. faecalis
[20] = target: S. aureus DNA gyrase (Staphylococcus aureus, UniProt P0A0K8+P20831); test: In vitro DNA gyrase supercoiling enzymatic assay; assay type: biochemical
S. aureus DNA gyrase, sequence (P20831 whole entry): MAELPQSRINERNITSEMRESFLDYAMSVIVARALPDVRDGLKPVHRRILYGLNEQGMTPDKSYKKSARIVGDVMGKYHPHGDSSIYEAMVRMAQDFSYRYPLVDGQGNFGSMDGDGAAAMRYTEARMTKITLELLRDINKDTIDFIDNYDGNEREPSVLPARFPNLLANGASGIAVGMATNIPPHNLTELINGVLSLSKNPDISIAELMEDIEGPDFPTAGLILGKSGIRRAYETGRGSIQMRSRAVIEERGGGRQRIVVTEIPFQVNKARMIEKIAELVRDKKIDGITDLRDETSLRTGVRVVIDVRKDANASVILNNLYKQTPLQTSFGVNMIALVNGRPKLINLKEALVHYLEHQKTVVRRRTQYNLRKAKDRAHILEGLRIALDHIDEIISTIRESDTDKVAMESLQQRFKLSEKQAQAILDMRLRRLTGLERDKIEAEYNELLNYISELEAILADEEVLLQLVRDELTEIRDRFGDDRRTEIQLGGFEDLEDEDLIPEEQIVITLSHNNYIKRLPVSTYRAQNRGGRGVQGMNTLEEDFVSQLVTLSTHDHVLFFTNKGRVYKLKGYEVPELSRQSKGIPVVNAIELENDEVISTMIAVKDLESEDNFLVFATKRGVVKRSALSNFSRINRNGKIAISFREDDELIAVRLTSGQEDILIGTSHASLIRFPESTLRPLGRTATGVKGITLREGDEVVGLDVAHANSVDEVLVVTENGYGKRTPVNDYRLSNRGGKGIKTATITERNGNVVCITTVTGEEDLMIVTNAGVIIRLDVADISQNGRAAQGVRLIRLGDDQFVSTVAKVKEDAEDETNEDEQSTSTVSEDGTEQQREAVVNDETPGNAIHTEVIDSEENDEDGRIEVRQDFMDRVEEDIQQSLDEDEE
S. aureus DNA gyrase, sequence (P0A0K8 whole entry): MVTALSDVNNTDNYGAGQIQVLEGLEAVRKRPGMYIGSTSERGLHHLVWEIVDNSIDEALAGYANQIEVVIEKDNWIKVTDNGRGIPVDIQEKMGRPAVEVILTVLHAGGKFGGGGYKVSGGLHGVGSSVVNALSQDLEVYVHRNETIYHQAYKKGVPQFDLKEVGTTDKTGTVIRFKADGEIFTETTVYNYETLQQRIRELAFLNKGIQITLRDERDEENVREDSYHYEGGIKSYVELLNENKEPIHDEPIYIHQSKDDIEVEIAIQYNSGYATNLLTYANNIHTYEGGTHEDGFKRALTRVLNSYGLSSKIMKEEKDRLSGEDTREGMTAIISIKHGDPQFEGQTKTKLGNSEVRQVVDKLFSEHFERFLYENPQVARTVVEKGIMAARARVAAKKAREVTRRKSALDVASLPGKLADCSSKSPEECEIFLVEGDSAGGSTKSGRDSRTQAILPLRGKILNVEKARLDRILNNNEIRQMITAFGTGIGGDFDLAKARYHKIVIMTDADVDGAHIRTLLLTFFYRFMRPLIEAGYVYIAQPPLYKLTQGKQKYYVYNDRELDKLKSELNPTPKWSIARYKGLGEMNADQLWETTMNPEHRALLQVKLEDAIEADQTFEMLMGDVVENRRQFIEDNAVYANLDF

[21] = test system: Salmonella typhi (S. typhi ATCC 6539); test: microbe, parasite or virus in culture; assay type: cell-based; conditions: Salmonella enterica, Salmonella typhi
[22] = test system: S. aureus ATCC 29213; test: MIC and MBC determination; assay type: cell-based; conditions: Staphylococcus aureus, ATCC29213, S. aureus
[23] = test system: P. aeruginosa ATCC 27853; test: MIC and MBC determination; assay type: cell-based; conditions: Pseudomonas aeruginosa, ATCC27853, P. aeruginosa
[24] = test system: F. oxysporum (RCMB 008002); test: MIC and MFC determination; assay type: cell-based
[25] = test system: C. albicans (ATCC 10231); test: MIC and MFC determination; assay type: cell-based
[26] = test system: CD4+ and CD8+ T lymphocytes; test: In vivo T lymphocyte subsets from peripheral blood, flow cytometry; conditions: mice
From the text: Activation of immune cells as CD4^+ and CD8^+ T cells is one possible mechanism of a drug’s immune stimulus activity. An increase in these cells is thought to be a good indicator of an active immune response to infections. So, our work extended to study the effect of the most promising derivatives (2d, 8, and 11) on T lymphocyte subsets (CD4^+ and CD8^+) from peripheral blood, and determined the relative level in model mice that analyzed by flow cytometry after the period of treating.
In vitro intracellular killing activities for the most promising six derivatives 2a, 2b, 2d, 3a, 8, and 11 were performed according to reported methods.

[27] = test system: spleen and thymus; test: In vivo immunomodulation: immune organ weight and indexes; conditions: mice
From the text: Both the spleen and thymus have important antibacterial and fungal immune organ responses, and any change in weight, and indexes can reflect the level of immune regulation. Additionally, the relative spleen and thymus indexes are important indices for nonspecific immunity and potential immunomodulatory compounds that increase the spleen and thymus weight. This increase is due to immune cells’ stimulation in the spleen and thymus. […]

SMILES: COc1ccc(-c2c(C(=O)Nc3ccc(S(=O)(=O)NC(=N)N)cc3)c(N)n(C3CCCCC3)c(=O)c2C#N)cc1 [Compound 4, 2-Amino-N-(4-(N-carbamimidoylsulfamoyl)phenyl)-5-cyano-1-cyclohexyl-4-(4-methoxyphenyl)-6-oxo-1,6-dihydropyridine-3-carboxamide]
- Mean Diameter of the Inhibition Zone [1]: 23 ± 0.74 mm
- Mean Diameter of the Inhibition Zone [2]: no activity
- Mean Diameter of the Inhibition Zone [3]: no activity
- Mean Diameter of the Inhibition Zone [4]: 25 ± 0.35 mm
- Mean Diameter of the Inhibition Zone [5]: 20 ± 0.50 mm
- Mean Diameter of the Inhibition Zone [6]: 23 ± 0.22 mm
- Mean Diameter of the Inhibition Zone [7]: 24 ± 0.33 mm
- melting point: 272 to 274 °C

SMILES: COc1ccc(/C=C(\C#N)C(=O)Nc2ccc(S(=O)(=O)NC(=N)N)cc2)cc1 [Compound 2b, N-(4-(N-Carbamimidoylsulfamoyl)phenyl)-2-cyano-3-(4-methoxyphenyl) acrylamide]
- Mean Diameter of the Inhibition Zone [1]: 21 ± 0.55 mm
- Mean Diameter of the Inhibition Zone [3]: 17 ± 0.50 mm
- Mean Diameter of the Inhibition Zone [4]: 24 ± 0.35 mm
- Mean Diameter of the Inhibition Zone [6]: 25 ± 0.87 mm
- Mean Diameter of the Inhibition Zone [7]: 21 ± 0.3 mm
- Mean Diameter of the Inhibition Zone [8]: 23 ± 0.2 mm
- Mean Diameter of Inhibition Zone [9]: 21 ± 0.11 mm
- Mean Diameter of Inhibition Zone [10]: 20 ± 0.34 mm
- Mean Diameter of Inhibition Zone [11]: 19 ± 0.16 mm
- Mean Diameter of Inhibition Zone [12]: 22 ± 0.85 mm
- MBC ([13]; read-out: MBC): 35.2 ± 1.25 µM (≈ 14 µg/mL)
- MIC ([13]; read-out: MIC): 19.6 ± 0.39 µM (≈ 7.81 µg/mL)
- MBC ([14]; read-out: MBC): 219.1 ± 2.14 µM (≈ 87.5 µg/mL)
- MIC ([14]; read-out: MIC): 156 ± 2.65 µM (≈ 62.5 µg/mL)
- MBC ([15]; read-out: MBC): 18.8 ± 0.21 µM (≈ 7.5 µg/mL)
- MIC ([15]; read-out: MIC): 9.38 ± 0.35 µM (≈ 3.75 µg/mL)
- MBC ([16]; read-out: MBC): 39.1 ± 0.54 µM (≈ 15.6 µg/mL)
- MIC ([16]; read-out: MIC): 19.6 ± 0.52 µM (≈ 7.81 µg/mL)
- MBC [17]: 18.77 ± 0.87 µM (≈ 7.5 µg/mL)
- MIC [17]: 9.38 ± 0.47 µM (≈ 3.75 µg/mL)
- MBC ([17]; Pseudomonas aeruginosa, ATCCBAA2111, read-out: MBC): 18.8 µM (≈ 7.5 µg/mL)
- MIC ([17]; Pseudomonas aeruginosa, ATCCBAA2111, read-out: MIC): 9.38 µM (≈ 3.75 µg/mL)
- MBC [18]: 9.38 ± 0.74 µM (≈ 3.75 µg/mL)
- MIC [18]: 4.69 ± 0.45 µM (≈ 1.87 µg/mL)
- MBC ([18]; Escherichia coli, ATCCBAA196, read-out: MBC): 9.38 µM (≈ 3.75 µg/mL)
- MIC ([18]; Escherichia coli, ATCCBAA196, read-out: MIC): 4.69 µM (≈ 1.87 µg/mL)
- MBC ([19]; read-out: MBC): 46.3 ± 0.74 µM (≈ 18.5 µg/mL)
- MIC ([19]; read-out: MIC): 23.1 ± 0.61 µM (≈ 9.25 µg/mL)
- IC50 [20]: 29.1 ± 1.93 µM
- MBC ([21]; read-out: MBC): 70.4 ± 0.85 µM (≈ 28.1 µg/mL)
- MIC ([21]; read-out: MIC): 39.1 ± 0.36 µM (≈ 15.6 µg/mL)
- MBC ([22]; read-out: MBC): 78.2 ± 0.87 µM (≈ 31.2 µg/mL)
- MIC ([22]; read-out: MIC): 39.1 ± 1.67 µM (≈ 15.6 µg/mL)
- MBC ([23]; read-out: MBC): 133 ± 1.02 µM (≈ 53.1 µg/mL)
- MIC ([23]; read-out: MIC): 78.2 ± 1.24 µM (≈ 31.2 µg/mL)
- MFC/MIC [24]: <2
- MFC ([24]; Fusarium oxysporum, RCMB008002, read-out: MFC): 222.3 ± 1.65 µM (≈ 88.8 µg/mL)
- MIC ([24]; Fusarium oxysporum, RCMB008002, read-out: MIC): 139 ± 1.53 µM (≈ 55.5 µg/mL)
- MFC/MIC [25]: <2
- MFC ([25]; Candida albicans, ATCC10231, read-out: MFC): 133 ± 1.65 µM (≈ 53.1 µg/mL)
- MIC ([25]; Candida albicans, ATCC10231, read-out: MIC): 78.2 ± 0.95 µM (≈ 31.2 µg/mL)

SMILES: O=C1O[C@H]([C@@H](O)CO)C(O)=C1O [Vitamin C, vitamin C, reference compound]
- T cells CD4+ [26]: 76.74 ± 0.7%
- T cells CD8+ [26]: 19.62 ± 0.21%
- Spleen weight [27]: 260 ± 0.028 mg
- Thymus index [27]: 0.633 ± 0.06 mg/g
- Thymus weight [27]: 17.2 ± 0.31 mg

SMILES: COc1ccc(-c2c(C#N)c(N)n(-c3ccc(S(=O)(=O)NC(=N)N)cc3)c(=O)c2C#N)cc1O [Compound 3d, 4-(6-Amino-3,5-dicyano-4-(3-hydroxy-4-methoxyphenyl)-2-oxopyridin-1(2H)-yl)-N-carbamimidoylbenzenesulfonamide]
- Mean Diameter of the Inhibition Zone [2]: 15 ± 0.36 mm
- Mean Diameter of the Inhibition Zone [3]: no activity
- Mean Diameter of the Inhibition Zone [4]: 21 ± 0.54 mm
- Mean Diameter of the Inhibition Zone [5]: 17 ± 0.21 mm
- Mean Diameter of the Inhibition Zone [6]: 20 ± 0.11 mm
- Mean Diameter of the Inhibition Zone [7]: 23 ± 0.29 mm
- Mean Diameter of the Inhibition Zone [8]: 22 ± 0.43 mm
- melting point: 250 to 252 °C

SMILES: N#CCC(=O)Nc1ccc(S(=O)(=O)NC(=N)N)cc1 [Compound 1, N-(4-(N-Carbamimidoylsulfamoyl)phenyl)-2-cyanoacetamide]
- Mean Diameter of the Inhibition Zone [1]: 20±0.65 mm
- Mean Diameter of the Inhibition Zone [2]: 17 ± 0.54 mm
- Mean Diameter of the Inhibition Zone [3]: 13 ± 0.54 mm
- Mean Diameter of the Inhibition Zone [4]: 19 ± 0.70 mm
- Mean Diameter of the Inhibition Zone [5]: 15 ± 0.63 mm
- Mean Diameter of the Inhibition Zone [6]: 14 ± 0.70 mm
- Mean Diameter of the Inhibition Zone [7]: 17 ± 0.50 mm
- Mean Diameter of the Inhibition Zone [8]: 16 ± 0.35 mm
- melting point: 172 to 174 °C
